{"source": "PubChem BioAssay AID1259407", "about": "(Chemical Carcinogenesis Research Information System (CCRIS), 2018)", "test_system": "CCRIS mutagenicity, Ames/micronucleus/aberration tests", "test": "CCRIS mutagenicity studies", "key": {"[1]": {"settings": "Test System: AMES SALMONELLA TYPHIMURIUM, Strain/Indicator: TA98, Metabolic Activation: NONE, Method: PREINCUBATION"}, "[2]": {"settings": "Test System: AMES SALMONELLA TYPHIMURIUM, Strain/Indicator: TA100, Metabolic Activation: RAT, LIVER, S-9, AROCLOR 1254, Method: STANDARD PLATE"}, "[3]": {"settings": "Test System: AMES SALMONELLA TYPHIMURIUM, Strain/Indicator: TA100, Metabolic Activation: NONE, Method: PREINCUBATION"}, "[4]": {"settings": "Test System: AMES SALMONELLA TYPHIMURIUM, Strain/Indicator: TA1535, Metabolic Activation: NONE, Method: PREINCUBATION"}}, "note": "The source made the active and inactive calls. No rule for the calls is given here."}
{"smiles": "O=[N+]([O-])c1cc([N+](=O)[O-])c2ccc3cccc4ccc1c2c43", "values": [{"measurement": "mutagenic call", "setting": "End Point: IN VITRO CHROMOSOMAL ABERRATIONS, Test System: CHINESE HAMSTER LUNG (CHL) CELLS, Metabolic Activation: NONE", "value": "active; positive"}, {"measurement": "mutagenic call", "setting": "End Point: IN VITRO CHROMOSOMAL ABERRATIONS, Test System: CHINESE HAMSTER LUNG (CHL) CELLS, Metabolic Activation: RAT, LIVER, S-9, KC-400", "value": "active; positive"}, {"measurement": "mutagenic call", "setting": "Test System: AMES SALMONELLA TYPHIMURIUM, Strain/Indicator: TA98 (1,8-DNP6), Metabolic Activation: NONE, Method: STANDARD PLATE", "value": "active; positive"}, {"measurement": "mutagenic call", "setting": "Test System: AMES SALMONELLA TYPHIMURIUM, Strain/Indicator: TA98 (NR), Metabolic Activation: NONE, Method: STANDARD PLATE", "value": "active; positive"}, {"measurement": "mutagenic call", "setting": "[1]", "value": "active; positive"}, {"measurement": "mutagenic call", "setting": "Test System: AMES SALMONELLA TYPHIMURIUM, Strain/Indicator: TA98, Metabolic Activation: NONE, Method: STANDARD PLATE", "value": "active; positive"}, {"measurement": "mutagenic call", "setting": "Test System: AMES SALMONELLA TYPHIMURIUM, Strain/Indicator: TA98, Metabolic Activation: RAT, LIVER, S-9, PCB (10%), Method: PREINCUBATION", "value": "inactive; negative"}, {"measurement": "mutagenic call", "setting": "Test System: AMES SALMONELLA TYPHIMURIUM, Strain/Indicator: TA100, Metabolic Activation: NONE, Method: STANDARD PLATE", "value": "active; positive"}, {"measurement": "mutagenic call", "setting": "Test System: AMES SALMONELLA TYPHIMURIUM, Strain/Indicator: TA100, Metabolic Activation: RAT, LIVER, CYTOSOL, AROCLOR 1254, Method: STANDARD PLATE", "value": "active; positive"}, {"measurement": "mutagenic call", "setting": "Test System: AMES SALMONELLA TYPHIMURIUM, Strain/Indicator: TA100, Metabolic Activation: RAT, LIVER, CYTOSOL, Method: STANDARD PLATE", "value": "active; positive"}, {"measurement": "mutagenic call", "setting": "Test System: AMES SALMONELLA TYPHIMURIUM, Strain/Indicator: TA100, Metabolic Activation: RAT, LIVER, MICROSOMES, AROCLOR 1254, Method: STANDARD PLATE", "value": "active; positive"}, {"measurement": "mutagenic call", "setting": "Test System: AMES SALMONELLA TYPHIMURIUM, Strain/Indicator: TA100, Metabolic Activation: RAT, LIVER, MICROSOMES, Method: STANDARD PLATE", "value": "active; positive"}, {"measurement": "mutagenic call", "setting": "[2]", "value": "inactive; negative"}, {"measurement": "mutagenic call", "setting": "Test System: AMES SALMONELLA TYPHIMURIUM, Strain/Indicator: TA100, Metabolic Activation: RAT, LIVER, S-9, Method: STANDARD PLATE", "value": "active; positive"}, {"measurement": "mutagenic call", "setting": "Test System: AMES SALMONELLA TYPHIMURIUM, Strain/Indicator: TA7001, Metabolic Activation: NONE, Method: PREINCUBATION", "value": "active; positive"}, {"measurement": "mutagenic call", "setting": "Test System: AMES SALMONELLA TYPHIMURIUM, Strain/Indicator: TA7002, Metabolic Activation: NONE, Method: PREINCUBATION", "value": "active; positive"}, {"measurement": "mutagenic call", "setting": "Test System: AMES SALMONELLA TYPHIMURIUM, Strain/Indicator: TA7003, Metabolic Activation: NONE, Method: PREINCUBATION", "value": "active; positive"}, {"measurement": "mutagenic call", "setting": "Test System: AMES SALMONELLA TYPHIMURIUM, Strain/Indicator: TA7004, Metabolic Activation: NONE, Method: PREINCUBATION", "value": "active; positive"}, {"measurement": "mutagenic call", "setting": "Test System: AMES SALMONELLA TYPHIMURIUM, Strain/Indicator: TA7005, Metabolic Activation: NONE, Method: PREINCUBATION", "value": "active; positive"}, {"measurement": "mutagenic call", "setting": "Test System: AMES SALMONELLA TYPHIMURIUM, Strain/Indicator: TA7006, Metabolic Activation: NONE, Method: PREINCUBATION", "value": "active; positive"}, {"measurement": "mutagenic call", "setting": "Test System: UDS HUMAN HEPATOMA CELLS, Strain/Indicator: HEPG2/THY INCORP, Metabolic Activation: NONE", "value": "inactive; negative"}]}
{"smiles": "CCc1cccc(CC)c1N=O", "values": [{"measurement": "mutagenic call", "setting": "[1]", "value": "active; positive"}, {"measurement": "mutagenic call", "setting": "Test System: AMES SALMONELLA TYPHIMURIUM, Strain/Indicator: TA98, Metabolic Activation: RAT, LIVER, MICROSOMES, PHENOBARBITAL, Method: PREINCUBATION", "value": "active; positive"}, {"measurement": "mutagenic call", "setting": "Test System: AMES SALMONELLA TYPHIMURIUM, Strain/Indicator: TA100, Metabolic Activation: RAT, LIVER, MICROSOMES, PHENOBARBITAL, Method: PREINCUBATION", "value": "active; positive"}]}
{"smiles": "C=C(C=O)CCC", "values": [{"measurement": "mutagenic call", "setting": "Test System: AMES SALMONELLA TYPHIMURIUM, Strain/Indicator: TA100, Metabolic Activation: RAT LIVER S-9, AROCLOR 1254, Method: PREINCUBATION", "value": "active; positive"}, {"measurement": "mutagenic call", "setting": "Test System: AMES SALMONELLA TYPHIMURIUM, Strain/Indicator: TA100, Metabolic Activation: RAT, LIVER, S-9, AROCLOR 1254, Method: PREINCUBATION", "value": "active; positive"}]}
{"smiles": "NCC(=O)CCC(=O)O", "values": [{"measurement": "mutagenic call", "setting": "[1]", "value": "inactive; negative"}, {"measurement": "mutagenic call", "setting": "[3]", "value": "inactive; negative"}, {"measurement": "mutagenic call", "setting": "Test System: AMES SALMONELLA TYPHIMURIUM, Strain/Indicator: TA102, Metabolic Activation: NONE, Method: PREINCUBATION", "value": "active; positive"}, {"measurement": "mutagenic call", "setting": "Test System: AMES SALMONELLA TYPHIMURIUM, Strain/Indicator: TA104, Metabolic Activation: NONE, Method: PREINCUBATION", "value": "active; positive"}, {"measurement": "mutagenic call", "setting": "[4]", "value": "inactive; negative"}]}
{"smiles": "O=C1c2ccccc2-c2c1ccc1ccc3ccccc3c21", "values": [{"measurement": "mutagenic call", "setting": "[2]", "value": "inactive; negative"}]}
{"smiles": "CCC(C(N)=O)(C(N)=O)c1ccccc1", "values": [{"measurement": "mutagenic call", "setting": "Test System: AMES SALMONELLA TYPHIMURIUM, Strain/Indicator: TA97, Metabolic Activation: HAMSTER, LIVER, S-9, AROCLOR 1254 (10 OR 30%), Method: PREINCUBATION", "value": "inactive; negative"}, {"measurement": "mutagenic call", "setting": "Test System: AMES SALMONELLA TYPHIMURIUM, Strain/Indicator: TA97, Metabolic Activation: NONE, Method: PREINCUBATION", "value": "inactive; negative"}, {"measurement": "mutagenic call", "setting": "Test System: AMES SALMONELLA TYPHIMURIUM, Strain/Indicator: TA97, Metabolic Activation: RAT, LIVER, S-9, AROCLOR 1254 (10 OR 30%), Method: PREINCUBATION", "value": "inactive; negative"}, {"measurement": "mutagenic call", "setting": "Test System: AMES SALMONELLA TYPHIMURIUM, Strain/Indicator: TA98, Metabolic Activation: HAMSTER, LIVER, S-9, AROCLOR 1254 (10 OR 30%), Method: PREINCUBATION", "value": "inactive; negative"}, {"measurement": "mutagenic call", "setting": "[1]", "value": "inactive; negative"}, {"measurement": "mutagenic call", "setting": "Test System: AMES SALMONELLA TYPHIMURIUM, Strain/Indicator: TA98, Metabolic Activation: RAT, LIVER, S-9, AROCLOR 1254 (10 OR 30%), Method: PREINCUBATION", "value": "inactive; negative"}, {"measurement": "mutagenic call", "setting": "Test System: AMES SALMONELLA TYPHIMURIUM, Strain/Indicator: TA100, Metabolic Activation: HAMSTER, LIVER, S-9, AROCLOR 1254 (10 OR 30%), Method: PREINCUBATION", "value": "inactive; negative"}, {"measurement": "mutagenic call", "setting": "[3]", "value": "inactive; negative"}, {"measurement": "mutagenic call", "setting": "Test System: AMES SALMONELLA TYPHIMURIUM, Strain/Indicator: TA100, Metabolic Activation: RAT, LIVER, S-9, AROCLOR 1254 (10 OR 30%), Method: PREINCUBATION", "value": "inactive; negative"}, {"measurement": "mutagenic call", "setting": "Test System: AMES SALMONELLA TYPHIMURIUM, Strain/Indicator: TA1535, Metabolic Activation: HAMSTER, LIVER, S-9, AROCLOR 1254 (10 OR 30%), Method: PREINCUBATION", "value": "inactive; negative"}, {"measurement": "mutagenic call", "setting": "[4]", "value": "inactive; negative"}, {"measurement": "mutagenic call", "setting": "Test System: AMES SALMONELLA TYPHIMURIUM, Strain/Indicator: TA1535, Metabolic Activation: RAT, LIVER, S-9, AROCLOR 1254 (10 OR 30%), Method: PREINCUBATION", "value": "inactive; negative"}]}
{"smiles": "CN1C(=O)CC[C@H]1c1cccnc1", "values": [{"measurement": "mutagenic call", "setting": "[1]", "value": "inactive; negative"}, {"measurement": "mutagenic call", "setting": "Test System: AMES SALMONELLA TYPHIMURIUM, Strain/Indicator: TA98, Metabolic Activation: RAT, LIVER, S-9, AROCLOR 1254 (5%), Method: PREINCUBATION", "value": "inactive; negative"}, {"measurement": "mutagenic call", "setting": "[3]", "value": "inactive; negative"}, {"measurement": "mutagenic call", "setting": "Test System: AMES SALMONELLA TYPHIMURIUM, Strain/Indicator: TA100, Metabolic Activation: RAT, LIVER, S-9, AROCLOR 1254 (5%), Method: PREINCUBATION", "value": "inactive; negative"}, {"measurement": "mutagenic call", "setting": "[4]", "value": "inactive; negative"}, {"measurement": "mutagenic call", "setting": "Test System: AMES SALMONELLA TYPHIMURIUM, Strain/Indicator: TA1535, Metabolic Activation: RAT, LIVER, S-9, AROCLOR 1254 (5%), Method: PREINCUBATION", "value": "inactive; negative"}, {"measurement": "mutagenic call", "setting": "Test System: AMES SALMONELLA TYPHIMURIUM, Strain/Indicator: TA1537, Metabolic Activation: NONE, Method: PREINCUBATION", "value": "inactive; negative"}, {"measurement": "mutagenic call", "setting": "Test System: AMES SALMONELLA TYPHIMURIUM, Strain/Indicator: TA1537, Metabolic Activation: RAT, LIVER, S-9, AROCLOR 1254 (5%), Method: PREINCUBATION", "value": "inactive; negative"}, {"measurement": "mutagenic call", "setting": "Test System: AMES SALMONELLA TYPHIMURIUM, Strain/Indicator: TA1538, Metabolic Activation: NONE, Method: PREINCUBATION", "value": "inactive; negative"}, {"measurement": "mutagenic call", "setting": "Test System: AMES SALMONELLA TYPHIMURIUM, Strain/Indicator: TA1538, Metabolic Activation: RAT, LIVER, S-9, AROCLOR 1254 (5%), Method: PREINCUBATION", "value": "inactive; negative"}]}
